Experimental data reported in patent US12319648B2, “Fluorinated phenylacetic acid derivatives in a weed control method” (SYNGENTA CROP PROTECTION AG, priority 2019, dated 2025).

Columns and labels:
Format in all cases: in vivo
[1] = system: Amaranthus retoflexus (AMARE); experiment: Pre-emergence herbicidal glasshouse test; conditions: for % phytotoxicity AMARE: comparative pre-emergence test
Summary of the method: (§1)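 Plants were sprayed one day after sowing (pre-emergence) or after 8 days' growth (post-emergence) at 250 g/ha unless otherwise stated, in acetone/water (50:50) with 0.5% Tween 20. Glasshouse conditions were 24/16 °C, 14 h light, 65% humidity. Damage was scored after 13 days on a five-point scale (5=81-100%; 1=0-20%).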

[2] = system: Echinochloa crus-galli (ECHCG); experiment: Pre-emergence herbicidal glasshouse test; conditions: for % phytotoxicity ECHCG: comparative pre-emergence test
Summary of the method: as §1

[3] = system: Setaria faberi (SETFA); experiment: Pre-emergence herbicidal glasshouse test; conditions: for % phytotoxicity SETFA: comparative pre-emergence test
Summary of the method: as §1

[4] = system: Ipomoea hederacea (IPOHE); experiment: Pre-emergence herbicidal glasshouse test; conditions: for % phytotoxicity IPOHE: comparative pre-emergence test
Summary of the method: as §1

[5] = system: Lolium perenne (LOLPE); experiment: Pre-emergence herbicidal glasshouse test; conditions: for % phytotoxicity LOLPE: comparative pre-emergence test
Summary of the method: as §1

[6] = system: Solanum nigrum (SOLNI); experiment: Pre-emergence herbicidal glasshouse test; conditions: for % phytotoxicity SOLNI: comparative pre-emergence test
Summary of the method: as §1

[7] = system: Amaranthus retoflexus (AMARE); experiment: Post-emergence herbicidal glasshouse test; conditions: for % phytotoxicity AMARE: comparative post-emergence test
Summary of the method: as §1

[8] = system: Echinochloa crus-galli (ECHCG); experiment: Post-emergence herbicidal glasshouse test; conditions: for % phytotoxicity ECHCG: comparative post-emergence test
Summary of the method: as §1

[9] = system: Setaria faberi (SETFA); experiment: Post-emergence herbicidal glasshouse test; conditions: for % phytotoxicity SETFA: comparative post-emergence test
Summary of the method: as §1

[10] = system: Ipomoea hederacea (IPOHE); experiment: Post-emergence herbicidal glasshouse test; conditions: for % phytotoxicity IPOHE: comparative post-emergence test
Summary of the method: as §1

[11] = system: Lolium perenne (LOLPE); experiment: Post-emergence herbicidal glasshouse test; conditions: for % phytotoxicity LOLPE: comparative post-emergence test
Summary of the method: as §1

[12] = system: Solanum nigrum (SOLNI); experiment: Post-emergence herbicidal glasshouse test; conditions: for % phytotoxicity SOLNI: comparative post-emergence test
Summary of the method: as §1

[13] = pre-emergence, 250 g/ha, 13 days after application
[14] = post-emergence, 250 g/ha, 13 days after application

O=C(O)C(F)(F)c1cccc(Br)c1Cl [Compound 1.037]
5 (5=81-100%): percentage damage caused to the plant, five-point scale, AMARE [1, 13] | percentage damage caused to the plant, five-point scale, SOLNI [6, 13] | percentage damage caused to the plant, five-point scale, AMARE [7, 14] | percentage damage caused to the plant, five-point scale, SOLNI [12, 14]
3 (3=41-60%): percentage damage caused to the plant, five-point scale, LOLPE [5, 13] | percentage damage caused to the plant, five-point scale, LOLPE [11, 14]
4 (4=61-80%): percentage damage caused to the plant, five-point scale, ECHCG [2, 13] | percentage damage caused to the plant, five-point scale, SETFA [3, 13] | percentage damage caused to the plant, five-point scale, IPOHE [4, 13] | percentage damage caused to the plant, five-point scale, ECHCG [8, 14] | percentage damage caused to the plant, five-point scale, SETFA [9, 14] | percentage damage caused to the plant, five-point scale, IPOHE [10, 14]

O=C(O)C(Cl)(Cl)c1cccc(Cl)c1Cl [Compound C1, reference compound]
0%: % phytotoxicity ECHCG ([2]; 500 g/ha) | % phytotoxicity ECHCG ([2]; 1000 g/ha) | % phytotoxicity SETFA ([3]; 500 g/ha) | % phytotoxicity SETFA ([3]; 1000 g/ha) | % phytotoxicity LOLPE ([5]; 500 g/ha) | % phytotoxicity LOLPE ([5]; 1000 g/ha) | % phytotoxicity ECHCG ([8]; 500 g/ha) | % phytotoxicity SETFA ([9]; 500 g/ha) | % phytotoxicity LOLPE ([11]; 500 g/ha)
20%: % phytotoxicity LOLPE ([11]; 1000 g/ha)
10%: % phytotoxicity ECHCG ([8]; 1000 g/ha) | % phytotoxicity SETFA ([9]; 1000 g/ha)
70%: % phytotoxicity SOLNI ([6]; 1000 g/ha) | % phytotoxicity IPOHE ([10]; 500 g/ha) | % phytotoxicity SOLNI ([12]; 1000 g/ha)
80%: % phytotoxicity AMARE ([1]; 500 g/ha) | % phytotoxicity AMARE ([1]; 1000 g/ha) | % phytotoxicity AMARE ([7]; 500 g/ha) | % phytotoxicity AMARE ([7]; 1000 g/ha) | % phytotoxicity IPOHE ([10]; 1000 g/ha)
30%: % phytotoxicity IPOHE ([4]; 500 g/ha)
60%: % phytotoxicity IPOHE ([4]; 1000 g/ha) | % phytotoxicity SOLNI ([6]; 500 g/ha) | % phytotoxicity SOLNI ([12]; 500 g/ha)
